# Laboratory results: a melting point compilation (Tetko et al.; mined from patent text by program, amines drawn as free bases though some values may be those of a salt)
row,melting point [°C],SMILES
1,107 to 109,O=C(Nc1ccc(F)cc1F)c1nccnc1Oc1cccc(C(F)(F)F)c1
2,170 to 172,CC(=O)c1ccc2occ(C#N)c(=O)c2c1
3,164 to 169,Cc1cc(F)ccc1-c1cc(N2CCSCC2)ncc1C(=O)NC(C)(C)C
4,221 to 222,Cc1ccc(N(C)S(=O)(=O)c2cccs2)c2[nH]c(C(N)=O)cc12
5,259 to 268,C#Cc1ccc2c(c1)C=C(C(=O)O)C(C(F)(F)F)N2 (stereo not given)
6,> 250,COc1cc(C#N)ccc1C(=O)Nc1cc(Cl)c(Cl)cc1N
7,297 to 299,COc1cccc(CNC(=O)c2nc3scc(COc4ccc(C(=O)O)cc4)c3c(=O)[nH]2)c1
8,78,O=C(O)Cc1cccc(CCNC(=O)C2Cc3ccccc3N2S(=O)(=O)c2ccc(-c3ccccc3C(F)(F)F)cc2)c1 (stereo not given)
9,115,NC(=O)c1ccc(F)c2c1CC(N(CCCCc1c[nH]c3ccc(F)cc13)CC1CC1)CO2 (stereo not given)
10,126 to 132,O=C1CN(C(=O)N2CCCC2)c2c(F)cccc2N1
11,190,O=C1NC(=Cc2ccc(Cl)cc2)C(=O)C1=NO
12,243 to 244,COc1ccc2cc(CN3CCC(NC(=O)NC(=O)c4ccccc4)CC3)ccc2c1
13,161 to 165,Nc1cccc2c(=O)[nH]sc12
14,110 to 113,CCOC(=O)c1ccc(-c2cc(-c3ccc4c(c3)C(C)(C)CCC4(C)C)ccc2OS(=O)(=O)C(F)(F)F)cc1
15,231 to 232,Cn1c(C#N)c(-c2ccc(F)cc2)c2cccnc2c1=O
16,122 to 124,O=C(CNC(=O)c1cc([N+](=O)[O-])c([N+](=O)[O-])cc1Cl)OCc1ccccc1
17,169 to 170,Fc1ccc2c(c1)C(OCC1CC1)(C(F)F)c1cc(Cl)cnc1N2 (stereo not given)
18,136 to 138,O=C(O)c1ccc(C(F)(F)F)cc1[N+](=O)[O-]
19,104 to 105,O=C(Nc1cc(C(F)(F)F)cc(C(F)(F)F)c1)c1cnc(Cl)nc1Cl

row,melting point [°C],SMILES
1,285 to 287,O=c1[nH]c(-c2ccc(CCN3CCN(c4cccc(C(F)(F)F)c4)CC3)cc2)cs1
2,260 to 261,CC(=O)Nc1c(C(=O)c2ccccc2)[nH]c2ccc(NS(C)(=O)=O)cc12
3,113 to 114,O=C1NCC(Cc2ccccc2F)O1 (stereo not given)
4,138 to 139,CC(=O)c1ccc(S(=O)(=O)N2CCCC2)cc1
5,196 to 198,CC1(C)Oc2ccc(C=O)cc2C(N2CCCC2=O)C1O (stereo not given)
6,92 to 94,CCC(O)CN1N=C(c2ccccc2)CC(O)C1=O (stereo not given)
7,238,Cn1c(=O)cc(CC(=O)O)c2cc(C#N)ccc21
8,134 to 135,COC(=O)c1cc(Cl)c(C(=O)OC)cc1Cl
9,200 to 203,Cc1cc(OCc2sc(-c3ccc(C(F)(F)F)cc3)nc2C)ccc1/C=C/C(=O)O
10,138,CC(C)c1ccc(N(Cc2ccc(OCC(F)(F)F)cc2)C(=O)Nc2c(C(C)C)cccc2C(C)C)cc1
11,138 to 140,N#Cc1ccc(-c2nc(CO)no2)cc1
12,80 to 82,CCCCOCCOc1ccc(-c2ccc3c(c2)C=C(C(=O)OC)CCN3c2ccccc2)cc1
13,189,COc1cc(N)c(Cl)cc1C(=O)N[C@H]1CCN(Cc2cccnc2)C[C@H]1OC (relative stereo)
14,34 to 35,CNc1ccccc1C(C)=O
15,231,FC(F)(F)c1ccc(-c2cc(C(F)(F)F)n3cnc(-c4cccnc4)c3n2)cc1
16,208 to 212,CC(C)(C)c1nc(N)n(-c2c(Cl)cc(C(F)(F)F)cc2Cl)n1
17,198 to 199,Cn1nc(-c2cccc(C(F)(F)F)c2)cc1C(=O)O
18,123 to 128,O=C(O)CC1c2ncccc2S(=O)(=O)N1c1ccccc1 (stereo not given)

# Continued, compound first:
row,SMILES,melting point [°C]
1,c1cnc2ccc(Cn3nnc4ccc(-n5ccnc5)nc43)cc2c1,227 to 230
2,CC(C)(C)OC(=O)N1C[C@@H]2OCc3cnnn3[C@H]2C1,155 to 157
3,CN1CC(=O)Nc2cccnc2C1=O,272 to 274
4,Cc1ccc(C(=O)c2ccc3nc(Cl)nc(-c4cccc(Cl)c4)c3c2)cc1,156
5,CC1(C)CC(=O)C2=C(C1)NC1=C(C(=O)CC(C)(C)C1)C2c1ccc(Cl)c(Oc2ccncc2)c1,242 to 244
6,S=C(Nc1ccc(Cl)cc1)NC1C2CC3C(C2)C31 (stereo not given),164 to 166
7,CCOC(=O)Cn1ccc2ccc3c(c21)CCN(C(=O)OC(C)(C)C)CC3,111 to 115
8,CC(C)N(CCNC(=O)c1csc(NC(=O)C2=CC=CC(=Nc3ccc[nH]3)C2)n1)C(C)C,160 to 162
9,CSc1ccc(-c2sc(NC(C)=O)nc2/C=C/c2ccc([N+](=O)[O-])cc2)cc1,228 to 230
10,Clc1ccc2c(c1)C(c1ccccc1)=NCc1nnc(CNC3CC3)n1-2,164 to 169
11,COc1cccnc1C(=O)NCCNC(=O)OC(C)(C)C,115
12,O=C1CN=C(c2ccccc2)c2ccccc2N1CC(F)(F)F,130 to 131
13,CCCc1nc2c(N)nc3cc(Br)ccc3c2n1CCCONC(=O)C(C)C,176 to 178
14,COc1ccccc1-c1ccc(C[C@@H](NC(=O)c2c(Cl)cccc2Cl)C(=O)O)cc1,195
15,CCCCCCC(CCCCCC)N1C(=O)c2ccc3c4cccc5c(NC(C)=O)ccc(c6ccc(c2c36)C1=O)c54,> 230
16,CCc1nsc(C(=O)NC(C)C)c1C(=O)O,138 to 140
17,COC(=O)c1ccc2c(CCC=O)nn(C)c2c1,80 to 83
18,CCCOc1nc(N)nc2nc[nH]c12,198 to 200
19,N#Cc1cc(-c2nc3cncnc3s2)ccc1Oc1ccccc1O,255 to 256
20,CCC/C=C/S(=O)(=O)NC(=O)c1ccc2nc(C)n(Cc3ccc(N(C)C(=O)OCC)cc3Cl)c2n1,165 to 166
21,Cc1cnc2[nH]cc(/C=C3\N=C(NCC4CC4)NC3=O)c2c1,319 to 320

row,SMILES,melting point [°C]
1,CC(C)(C)Nc1nc(Cl)c(C#N)cc1F,84 to 85
2,CS(=O)(=O)c1ccc(-c2cc3c(cc2C(=O)c2cc(F)cc(F)c2)OCCO3)cc1,191 to 193
3,CCN(CC)S(=O)(=O)c1cc(Cl)c(Cl)c(Cl)c1S,96 to 99
4,CS(=O)(=O)Cc1ccc(C(=NN)c2ccc(Cl)cc2)cc1,52 to 54
5,CCC(CC)Nc1cc(C)nc2c1nc(C)n2-c1c(C)cc(C)cc1C,101 to 103
6,COC(=O)c1nc(NC(C)=O)ccc1Oc1nc(OC)cc(OC)n1,80 to 85
7,CN[C@@H](CSC(c1ccccc1)(c1ccccc1)c1ccccc1)C(=O)O,114
8,CC(=O)c1c[nH]c2cn[nH]c2c1=O,> 320
9,CN1CCC(=C2c3ccccc3OCc3cc(Br)sc32)CC1,101 to 103
10,COC(=O)[C@@]1(O)C[C@@H](OC(=O)c2ccccc2)[C@@H]2OC(C)(C)O[C@@H]2C1,109 to 110
11,Nc1nc(-c2cccnc2Cl)c(-c2cccnc2Cl)o1,243 to 244
12,COc1cc2c(cc1OC)C(C=Cc1ccc(Cl)c(Cl)c1)=NNC(C)C2 (stereo not given),132 to 133
13,O=C1C=CC(c2ccccc2)(c2ccccc2)C=C1O,145
14,COC(=O)C[C@H](CCC(=O)OCc1ccccc1)NC(=O)OC(C)(C)C,97 to 98
15,OC(Cc1ccc(Cl)cc1Cl)(Cn1ccnc1)c1ccc(F)cc1 (stereo not given),178 to 179
16,CCN(CC)CCCCNc1ncc2c(n1)N(C1CCCC1)C(=O)N(c1c(F)c(OC)cc(OC)c1F)C2,132 to 133
17,CN1CCN(c2ccc(NC=C3C(=O)NC(=O)c4ccc(OCCN5CCOCC5)cc43)cc2)CC1,142 to 143
18,Cc1cc(COC2CCCCO2)nc(N)n1 (stereo not given),109 to 110
19,CN[C@@H]1Cc2cccc3[nH]c(=S)n(c23)C1,210 to 213
20,CCCCCCCCCCCCCCCCCC(=O)N[C@@H](C)C(=O)O,102
21,CCn1c(=O)c2c(ncn2CCCCC(O)CO)n(CC)c1=O (stereo not given),77 to 78

row,SMILES,melting point [°C]
1,CCCCc1ncc(C=O)n1Cc1ccc(C(=O)OC)c2ccccc12,95.5 to 97
2,COc1ccc(CNc2cc(Cl)ncc2C(=O)NCc2ncccn2)cc1Cl,134 to 136
3,CC(C)C[C@H](NC(C)C)C(=O)O,293 to 296
4,COC1=CC(O)=CC(OC)C1(OC)c1cc2cccnc2[nH]1 (stereo not given),174 to 176
5,CN1C(=O)[C@@H](NC(=O)C2CCCCC2)N=C(c2ccccc2)c2ccccc21,212 to 214
6,O=c1cc(-c2cc3ccccc3cc2O)oc2ccccc12,202
7,CCN(CC)CCNc1nc2cccnc2n(-c2ccc(Cl)cc2)c1=O,149 to 150
8,CC(C)Nc1nc(N)c(C(=O)N=CNNS(=O)(=O)N(C)C)nc1Cl,172
9,OCc1cc2ccc3c4ccccc4ccc3c2s1,169 to 170
10,CCOC(=O)C1=C(C)NC(C)=C(C(=O)OCC)C1c1ccc(-n2ccnc2)cc1,231 to 233
11,C[C@H]1CCCN(C(=O)[C@@H]2Cc3ccccc3N2c2nccs2)C1,167 to 169
12,N#CCCC(C=O)(c1ccccc1)c1ccccc1,80 to 82
13,COc1ncc(Cc2nnc(Nc3ccc(C(C)(C)C)cc3)c3ccccc23)cc1-c1ccco1,180 to 182
14,Cc1sc2c(Br)c3ccccc3c(-c3cc(Br)c(O)c(NC(=O)OC(C)(C)C)c3)c2c1C,205 to 207
15,CCOc1cc2c(Nc3cc(OC)c(Cl)cc3Cl)c(C#N)cnc2cc1C#CCCN1CCN(C)CC1,158 to 160
16,Cc1ccc(S(=O)(=O)N2CCC(Sc3ccccc3)CC2)cc1,105 to 108
17,COc1ccc2c(C3=C(c4cn(C)c5cc([N+](=O)[O-])ccc45)C(=O)NC3=O)cn(C)c2c1,308 to 310
18,CC(C)(C)NC(=O)C(C)(C)N(OC(C)(C)C#N)C(C)(C)C,77 to 79
19,COc1ccc(C(=O)N2c3ccccc3C(N3CCCc4cc(C)ccc43)CC2C)cc1OC (stereo not given),139 to 140
20,O=[N+]([O-])c1ccc(CSSCc2ccc([N+](=O)[O-])cc2)cc1,126
21,CCCC[C@H](NC(=O)[C@H](CCCC)NC(=O)OCc1ccccc1)C(=O)CSCc1ccco1,95 to 97
